The record followed here is patent publication US8273773B2 (priority 2008, dated 2012).

Data set [1] has as its target T1, HCV polymerase (NS5B570n-Con1) (Hepatitis C virus genotype 1b, UniProt Q9WMX2).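 Also: recombinant His-tagged enzyme from E. coli, radiolabeled nucleotide incorporation into acid-insoluble RNA read by scintillation after filtration, no-enzyme background subtracted, activity relative to positive control.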
T1 construct: contains a 21 amino acid deletion at the C-terminus relative to the full-length HCV polymerase; 6-histidine (N); made in house; host or cells: E. coli strain BL21(DE) pLysS (pET17b)
In words: biochemical. More on the design: species or system HCV Con1 strain.

Where [2] appears, read: IC50 HCV NS5B RNA Polymerase Assay, values without asterisk, 20 nM NS5B570n-Con1 enzyme, 20 nM cIRES RNA template.
[3] abbreviates: IC50 HCV NS5B RNA Polymerase Assay (values with asterisk), values with asterisk: cIRES RNA template, 3 nM NS5B570n-Con1.

What is called IC50 is the concentration at which inhibition is half-maximal. A high value points to weaker potency. By melting point is commonly meant the temperature of the solid-liquid transition.

In turn, `COc1c(CCc2cnc(NS(C)(=O)=O)nc2)cc(-c2ccc[nH]c2=O)cc1C(C)(C)C` [I-125] came in with a melting point of 282 to 283 °C. In data set [1] (setting [2]), the IC50 was found to be 16 nM.
For `Cc1cc(-c2ccc[nH]c2=O)cc(C(C)(C)C)c1` [I-3], in that order: 224 to 225 °C and 525 nM.
As for `COc1c(/C=C/c2ccc(NS(C)(=O)=O)cc2)cc(-c2ccc[nH]c2=O)c2c1C(C)(C)CC2` [II-5, N-(4-{(E)-2-[4-Methoxy-3,3-dimethyl-7-(2-oxo-1,2-dihydro-pyridin-3-yl)-indan-5-yl]-vinyl}-phenyl)-methanesulfonamide], the melting point fell in the range of 283 to 286.6 °C. In data set [1] (setting [3]), this compound had a half-maximal inhibitory concentration (IC50) of 1 nM.
Compound `CC(C)(C)c1cc(Cc2ccccc2)cc(-c2ccc[nH]c2=O)c1` [I-46, 3-(3-Benzyl-5-tert-butyl-phenyl)-1H-pyridin-2-one] came in with a melting point of 180 to 181 °C. This compound also displayed an IC50 in data set [1] (setting [2]) of 534 nM.
On to `COc1c(/C=C/c2ccc(NS(C)(=O)=O)cc2C#N)cc(-c2cc(F)c[nH]c2=O)cc1C(C)(C)C` [I-151, N-(4-{(E)-2-[3-tert-Butyl-5-(5-fluoro-2-oxo-1,2-dihydro-pyridin-3-yl)-2-methoxy-phenyl]-vinyl}-3-cyano-phenyl)-methanesulfonamide], for which the melting point lay within 158 to 160 °C. In data set [1] (setting [2]), this compound showed an IC50 of 5 nM.
The matching figures for `COc1c(CC(CN2CCC(F)(F)C2)c2ccc(NS(C)(=O)=O)cc2)cc(-c2ccc[nH]c2=O)cc1C(C)(C)C` (stereo not shown) [I-195]: 133 to 135 °C and 18 nM.
The matching figures for `COc1c(C(=O)c2ccnc(N)c2)cc(-c2ccc[nH]c2=O)cc1C(C)(C)C` [I-84, 3-[3-(2-Amino-pyridine-4-carbonyl)-5-tert-butyl-4-methoxy-phenyl]-1H-pyridin-2-one]: 140 to 145 °C and 32 nM.
In turn, `COc1c(CCc2ccc(NS(C)(=O)=O)nn2)cc(-c2ccc[nH]c2=O)cc1C(C)(C)C` [I-127] had a melting point of 218 to 220 °C. In data set [1] (setting [2]), this compound registered an IC50 of 4 nM.
The matching figures for `CC(C)(C)c1cc(Cl)c(O)c(-c2ccc[nH]c2=O)c1` [I-16]: 211.4 to 213.5 °C and 532 nM.
As for `CC(C)(C)c1cc(/C=C/c2ccc(NS(C)(=O)=O)cc2)c(O)c(-c2ccc[nH]c2=O)c1` [I-137], the melting point was 180 to 182 °C. In data set [1] (setting [2]), this compound gave an IC50 of 10 nM.
Consider `COc1c(C(=O)c2cccc(F)c2)cc(-c2ccc[nH]c2=O)cc1C(C)(C)C` [I-49], for which the melting point was in the range of 209 to 210 °C. For the same compound, the IC50 in data set [1] (setting [2]) came to 71 nM.
`Cc1cc(-c2cc(Cl)c[nH]c2=O)cc(C(C)(C)C)c1` [I-8] had a melting point of 232 to 233 °C. The compound also came in with an IC50 in data set [1] (setting [2]) of 1960 nM.
The matching figures for `COc1c(CCc2ccc(N)cc2)cc(-c2ccc[nH]c2=O)cc1C1(C)CC1` [I-99, 3-[3-[2-(4-amino-phenyl)-ethyl]-4-methoxy-5-(1-methyl-cyclopropyl)-phenyl]-1H-pyridin-2-one]: 209 to 211 °C and 590 nM.
For `COc1c(NC(=O)c2ccc(NS(C)(=O)=O)cc2Cl)cc(-c2ccc[nH]c2=O)cc1C(C)(C)C` [I-116], the melting point lay in the range of 263 to 265 °C. Moreover, the IC50 in data set [1] (setting [2]) was found to be 11 nM.
`CC(C)(C)c1cc(Cc2ccccc2)c(O)c(-c2ccc[nH]c2=O)c1` [I-17]: the melting point was 236 to 237 °C. Besides, in data set [1] (setting [2]), the IC50 was 293 nM.
For `CC(C)(C)c1cc(Oc2ccccc2)cc(-c2ccc[nH]c2=O)c1` [I-45, 3-(3-tert-Butyl-5-phenoxy-phenyl)-1H-pyridin-2-one], in that order: 90 to 91 °C and 786 nM.
Compound `COc1c(/C=C/c2ccc(NS(C)(=O)=O)cc2CO)cc(-c2ccc[nH]c2=O)cc1C(C)(C)C` [I-205, N-(4-{(E)-2-[3-tert-Butyl-2-methoxy-5-(2-oxo-1,2-dihydro-pyridin-3-yl)-phenyl]-vinyl}-3-hydroxymethyl-phenyl)-methanesulfonamide] gave a melting point of 140 to 142 °C. This compound also returned an IC50 in data set [1] (setting [3]) of 2 nM.
Take `Cc1cc(-c2cc(F)c[nH]c2=O)cc(C(C)(C)C)c1` [I-53]: the melting point was in the range of 244 to 246 °C. This compound showed an IC50 in data set [1] (setting [2]) of 1930 nM.
With `COc1c(CCc2ccc(F)cc2)cc(-c2ccc[nH]c2=O)cc1C(C)(C)C` [I-21], the melting point lay in the range of 157 to 158 °C. For the same compound, the IC50 in data set [1] (setting [2]) came to 90 nM.
The matching figures for `CC1(C)COc2c(-c3ccc[nH]c3=O)cc(/C=C/c3ccc(NS(C)(=O)=O)cc3)cc21` [II-2]: 231 to 233 °C and 6 nM.
For `CC(C)(C)c1cc(-c2ccc[nH]c2=O)cc(S(=O)(=O)c2ccccc2)c1` [I-107, 3-(3-Benzenesulfonyl-5-tert-butyl-phenyl)-1H-pyridin-2-one], in that order: 252 to 253 °C and 2490 nM.
The matching figures for `COc1c(CC(CN2CCOCC2)c2ccc(NS(C)(=O)=O)cc2)cc(-c2ccc[nH]c2=O)cc1C(C)(C)C` (stereo not shown) [I-193]: 138 to 140 °C and 12 nM.
In the case of `COc1c(C(=O)Nc2ccccc2)cc(-c2ccc[nH]c2=O)cc1C(C)(C)C` [I-68], the melting point was 288 to 290 °C. This compound came in with an IC50 in data set [1] (setting [2]) of 107 nM.
The matching figures for `COc1c(C(=O)Nc2ccc(CNS(C)(=O)=O)cc2)cc(-c2ccc[nH]c2=O)cc1C(C)(C)C` [I-76]: 213 to 216 °C and 62 nM.
The matching figures for `CC(=O)Nc1ccc(CCc2cc(-c3ccc[nH]c3=O)cc(C(C)(C)C)c2)cc1` [I-83]: 218 to 220 °C and 125 nM.
The matching figures for `COc1ccc(-c2ccc[nH]c2=O)c(F)c1C(C)(C)C` [I-56, 3-(3-tert-Butyl-2-fluoro-4-methoxy-phenyl)-1H-pyridin-2-one]: 164.5 to 166 °C and 136 nM.
Consider `COc1c(CC(C)(CN)c2ccc(NS(C)(=O)=O)cc2)cc(-c2ccc[nH]c2=O)cc1C(C)(C)C` (stereo not shown) [I-197, N-(4-{1-Aminomethyl-2-[3-tert-butyl-2-methoxy-5-(2-oxo-1,2-dihydro-pyridin-3-yl)-phenyl]-1-methyl-ethyl}-phenyl)-methanesulfonamide], for which the melting point fell in the range of 240 to 242 °C. In data set [1] (setting [2]), this compound displayed an IC50 of 84 nM.
For `COc1c(C(=O)c2cccc(C(N)=O)c2)cc(-c2ccc[nH]c2=O)cc1C(C)(C)C` [I-63], in that order: 150 to 160 °C and 10 nM.
The matching figures for `CNC(=O)Nc1ccc(CCc2cc(-c3ccc[nH]c3=O)cc(C(C)(C)C)c2)cc1` [I-86]: 237 to 239 °C and 278 nM.
The matching figures for `CCc1cc(C(C)(C)C)cc(-c2ccc[nH]c2=O)c1O` [I-14]: 224.2 to 226.2 °C and 332 nM.
As for `COc1c(C)cc(-c2ccc[nH]c2=O)cc1C(C)(C)C` [I-29], the melting point lay in the range of 176 to 178 °C. In addition, the IC50 in data set [1] (setting [2]) worked out at 521 nM.
The compound `COc1c(C(=O)c2ccc(F)cc2)cc(-c2ccc[nH]c2=O)cc1C(C)(C)C` [I-50] showed a melting point of 203 to 205 °C. In data set [1] (setting [2]), this compound returned an IC50 of 52 nM.
For `CC(C)(C)c1cc(-c2ccccc2)c(O)c(-c2ccc[nH]c2=O)c1` [I-15], in that order: 235.8 to 237 °C and 2920 nM.
The matching figures for `CC(C)(C)c1cc(/C=C/c2ccc(NS(C)(=O)=O)cc2C#N)cc(-c2ccc[nH]c2=O)c1` [I-147, N-(4-{(E)-2-[3-tert-Butyl-5-(2-oxo-1,2-dihydro-pyridin-3-yl)-phenyl]-vinyl}-3-cyano-phenyl)-methanesulfonamide]: more than 300 °C and 2 nM.
With `CC(C)(C)c1cc(/C=C/c2ccc(NS(C)(=O)=O)cc2)cc(-c2cc(F)c[nH]c2=O)c1` [I-148], the melting point was 210 to 212 °C. In data set [1] (setting [2]), this compound returned an IC50 of 6 nM.
The matching figures for `CC1(C)COc2c(/C=C/c3ccc(NS(C)(=O)=O)cc3)cc(-c3ccc[nH]c3=O)cc21` [II-1, N-(4-{(E)-2-[3,3-Dimethyl-5-(2-oxo-1,2-dihydro-pyridin-3-yl)-2,3-dihydro-benzofuran-7-yl]-vinyl}-phenyl)-methanesulfonamide]: 284 to 286 °C and 5 nM.
The compound `COc1c(NC(=O)c2ccc(NS(C)(=O)=O)cc2)cc(-c2cc(F)c[nH]c2=O)cc1C(C)(C)C` [I-81] had a melting point of 272 to 274 °C. Moreover, it took 22 nM to reach half-maximal inhibition in data set [1] (setting [2]) (IC50).
The matching figures for `CC(C)(C)c1cc(CCc2ccc(NS(C)(=O)=O)cc2)c(OCCO)c(-c2ccc[nH]c2=O)c1` [I-118, N-(4-{2-[5-tert-Butyl-2-(2-hydroxy-ethoxy)-3-(2-oxo-1,2-dihydro-pyridin-3-yl)-phenyl]-ethyl}-phenyl)-methanesulfonamide]: 223 to 225 °C and 15 nM.
`CC1(C)COc2c(-c3ccc[nH]c3=O)cc(NC(=O)c3ccc(NS(C)(=O)=O)cc3)cc21` [II-4, N-[3,3-Dimethyl-7-(2-oxo-1,2-dihydro-pyridin-3-yl)-2,3-dihydro-benzofuran-5-yl]-4-methanesulfonylamino-benzamide] returned a melting point of more than 300 °C. The IC50 in data set [1] (setting [2]) worked out at 33 nM.
For `COc1c(CCc2ccc(N)nn2)cc(-c2ccc[nH]c2=O)cc1C(C)(C)C` [I-128], in that order: 142 to 144 °C and 5 nM.
The matching figures for `COc1c(/C=C/c2ccc(NS(C)(=O)=O)cc2C#N)cc(-c2ccc[nH]c2=O)cc1C(C)(C)C` [I-150, N-(4-{(E)-2-[3-tert-Butyl-2-methoxy-5-(2-oxo-1,2-dihydro-pyridin-3-yl)-phenyl]-vinyl}-3-cyano-phenyl)-methanesulfonamide]: 266 to 268 °C and 3 nM.
